Source: patent US10800752B2, “Substituted naphtho[2,3-b]furans as water-soluble prodrugs for preventing and/or treating cancer” (BOSTON BIOMEDICAL, INC., priority 2015, dated 2020)
Where a name gives a salt, the structure may show the parent alone. Each block holds one compound with its values, some of them ahead of it.

Columns and labels:
[1] = Evaluation of a conversion rate to 2-acetylnaphtho[2,3-b]furan-4,9-dione in pH 7.4 phosphate buffer solution; assay type: physicochemical
Experimental: For test compounds, the decrease rate of the test compounds and the conversion rate thereof to 2-acetylnaphtho[2,3-b]furan-4,9-dione in human plasma, CD1 mouse plasma, and pH 7.4 phosphate buffer solution were measured.
Test compounds were incubated at the concentration of 1 umol/L in human plasma (cat. no. 12250210, COSMO BIO), CD1 mouse plasma (cat. no. AP3054, KAC), and phosphate buffer solution at 37° C., and removed at predetermined times (0, 5, 10, 30, 60, and 120 minutes). After protein-removing treatment was performed, they are analyzed with LC-MS. It should be noted that the protein-removing treatment used acetonitrile containing: 10% volume of 1 mol/L hydrochloric acid; 1% volume of 46% citric acid; and phenytoin as an internal standard.
The measurement condition of LC-MS is as described below. LC-MS condition column: Kinetex 2.6 u PFP 100 A 50×2.1 mm Column temperature: 40° C.
Mobile phase: A: 0.1% formic acid-containing water
• B: 0.1% formic acid-containing acetonitrile A/B(min): 95/5(0)→5/95(3)→5/95(4)→95/5(4.1)→95/5(6) Flow rate: 0.4 mL/min Detection: ESI (positive mode) Injection volume: 10 uL
Measurement values are calculated from the peak area ratio in LC-MS between an internal standard material, phenytoin and an active form, 2-acetylnaphtho[2,3-b]furan-4,9-dione, and are expressed in %.
In the same way as Example 6, the incubation time was set as 120 minutes later, and the conversion rate of each of various test compounds to 2-acetylnaphtho[2,3-b]furan-4,9-dione in human plasma, CD1 mouse plasma, and pH 7.4 phosphate buffer solution was measured. A series of the present compounds were confirmed to be converted to 2-acetylnaphtho[2,3-b]furan-4,9-dione in pH 7.4 phosphate buffer solution in addition to human plasma and CD1 mouse plasma. Therefore, a series of the test compounds of the present invention were confirmed to be converted to the activated form via a route other than an enzymatic conversion.

Solubility test = conditions: for Solubility in pH 2.0 buffer solution: 50 mmol/L glycine buffer solution (pH 2.0), room temperature, 24 hours shaking; for solubility at 24 hours: pH 2, aqueous buffer, thermodynamic from solid; for solubility (in words): pH 2.0 buffer solution
Experimental: A water-soluble prodrug was added into 50 mmol/L glycine buffer solution (pH 2.0). After shaking at room temperature for 24 hours, the mixture was filtered through a membrane filter, and then the filtrate was measured with HPLC.
The measurement condition of HPLC is as described below. HPLC condition column: Acquity UPLC BEH C18, 1.7 um, 50×2.1 mm
Mobile phase: A: 0.1% trifluoroacetic acid-containing water

[2] = Phosphate buffer solution (pH 7.4), 1 umol/L, 37° C., incubation time 120 min
[3] = Phosphate buffer solution (pH 7.4), 1 umol/L, 37° C., incubation time 120 min, monohydrate
[4] = Phosphate buffer solution (pH 7.4), 1 umol/L, 37° C., incubation time 120 min, monosulfate salt monohydrate
[5] = Phosphate buffer solution (pH 7.4), 1 umol/L, 37° C., incubation time 120 min, dimethanesulfonate salt monohydrate
[6] = Phosphate buffer solution (pH 7.4), 1 umol/L, 37° C., incubation time 120 min, trifluoroacetate salt monohydrate

Compound: CC(=O)c1cc2c(OC(=O)NCCNCCC(=O)O)c3ccccc3c(OC(=O)NCCNCCC(=O)O)c2o1 [Example 101, 3,3′-((((((2-acetylnaphtho[2,3-b]furan-4,9-diyl)bis(oxy))bis(carbonyl))bis(azanediyl))bis(ethane-2,1-diyl))bis(azanediyl))dipropionic acid dibenzenesulfonate salt]
% Measurement value (conversion rate to 2-acetylnaphtho[2,3-b]furan-4,9-dione) ([1]; Phosphate buffer solution (pH 7.4), 1 umol/L, 37° C., incubation time 120 min, dibenzenesulfonate salt): 56%

Compound: CC(=O)c1cc2c(OC(=O)NCCCN)c3ccccc3c(OC(=O)NCCCN)c2o1 [Example 1, 2-Acetylnaphtho[2,3-b]furan-4,9-diyl bis((3-aminopropyl)carbamate)dihydrochloride]
% Measurement value (conversion rate to 2-acetylnaphtho[2,3-b]furan-4,9-dione) [1, 2]: 79%

Compound: COC(=O)[C@@H](N)CCNC(=O)Oc1c2ccccc2c(OC(=O)NCC[C@H](N)C(=O)OC)c2oc(C(C)=O)cc12 [Example 106, Dimethyl 4,4′-((((2-acetylnaphtho[2,3-b]furan-4,9-diyl)bis(oxy))bis(carbonyl))bis(azanediyl))(2S,2′S)-bis(2-aminobutanoate)dibenzenesulfonate salt]
% Measurement value (conversion rate to 2-acetylnaphtho[2,3-b]furan-4,9-dione) [1, 2]: 55%
Solubility in pH 2.0 buffer solution (Solubility test): >5.0 mg/mL

Compound: CC(=O)c1cc2c(OC(=O)NCCNCCC(=O)O)c3ccccc3c(OC(=O)NCCNCCC(=O)O)c2o1 [Example 100, 3,3′-((((((2-acetylnaphtho[2,3-b]furan-4,9-diyl)bis(oxy))bis(carbonyl))bis(azanediyl))bis(ethane-2,1-diyl))bis(azanediyl))dipropionic acid ditoluenesulfonate salt monohydrate]
% Measurement value (conversion rate to 2-acetylnaphtho[2,3-b]furan-4,9-dione) [1, 3]: 76%

Compound: COC(=O)[C@@H](N)CCNC(=O)Oc1c2ccccc2c(OC(=O)NCC[C@H](N)C(=O)OC)c2oc(C(C)=O)cc12 [Example 107, Dimethyl 4,4′-((((2-acetylnaphtho[2,3-b]furan-4,9-diyl)bis(oxy))bis(carbonyl))bis(azanediyl))(2S,2′S)-bis(2-aminobutanoate) monosulfate salt monohydrate]
% Measurement value (conversion rate to 2-acetylnaphtho[2,3-b]furan-4,9-dione) [1, 4]: 50%

Compound: CC(=O)c1cc2c(OC(=O)NCCNCCC(=O)O)c3ccccc3c(OC(=O)NCCNCCC(=O)O)c2o1 [Example 99, 3,3′-((((((2-acetylnaphtho[2,3-b]furan-4,9-diyl)bis(oxy))bis(carbonyl))bis(azanediyl))bis(ethane-2,1-diyl))bis(azanediyl))dipropionic acid dimethanesulfonate salt monohydrate]
% Measurement value (conversion rate to 2-acetylnaphtho[2,3-b]furan-4,9-dione) [1, 5]: 60%

solubility at 24 hours (Solubility test; glycine buffer solution): < 0.1 µg/mL
solubility (in words) (Solubility test): very low solubility
Compound: CCCCCCCC(=O)Oc1c2ccccc2c(OC(=O)CCCCCCC)c2oc(C(C)=O)cc12 [2-acetylnaphtho[2,3-b]furan-4,9-diyl dioctanoate, reference compound]

Compound: CC(=O)c1cc2c(OC(=O)NCCNCC(=O)O)c3ccccc3c(OC(=O)NCCNCC(=O)O)c2o1 [Example 95, 2,2′-((((((2-acetylnaphtho[2,3-b]furan-4,9-diyl)bis(oxy))bis(carbonyl))bis(azanediyl))bis(ethane-2,1-diyl))bis(azanediyl))diacetic acid ditoluenesulfonate salt monohydrate]
% Measurement value (conversion rate to 2-acetylnaphtho[2,3-b]furan-4,9-dione) [1, 3]: 54%

Compound: CC(=O)c1cc2c(OC(=O)NCCNCCC(=O)O)c3ccccc3c(OC(=O)NCCNCCC(=O)O)c2o1 [Example 103, 3,3′-((((((2-acetylnaphtho[2,3-b]furan-4,9-diyl)bis(oxy))bis(carbonyl))bis(azanediyl))bis(ethane-2,1-diyl))bis(azanediyl))dipropionic acid 1/3 trifluoroacetate salt monohydrate]
% Measurement value (conversion rate to 2-acetylnaphtho[2,3-b]furan-4,9-dione) [1, 6]: 53%

Compound: CC(=O)c1cc2c(OC(=O)NCCNCC(F)F)c3ccccc3c(OC(=O)NCCNCC(F)F)c2o1.Cl.Cl [Example 44]
% Measurement value (conversion rate to 2-acetylnaphtho[2,3-b]furan-4,9-dione) ([1]; pH 7.4): 48%

Compound: CC(=O)c1cc2c(O)c3ccccc3c(OC(=O)NCCCN)c2o1.Cl [Example 20, 2-Acetyl-4-hydroxynaphtho[2,3-b]furan-9-yl (3-aminopropyl)carbamate hydrochloride]
% Measurement value (conversion rate to 2-acetylnaphtho[2,3-b]furan-4,9-dione) [1, 2]: 57%

Compound: CC(=O)c1cc2c(OC(=O)NCCNCCC(=O)O)c3ccccc3c(OC(=O)NCCNCCC(=O)O)c2o1 [Example 102, 3,3′-((((((2-acetylnaphtho[2,3-b]furan-4,9-diyl)bis(oxy))bis(carbonyl))bis-(azanediyl))bis(ethane-2,1-diyl))bis(azanediyl))dipropionic acid monosulfate salt monohydrate]
% Measurement value (conversion rate to 2-acetylnaphtho[2,3-b]furan-4,9-dione) [1, 4]: 59%

Compound: CN[C@@H](CCNC(=O)Oc1c2ccccc2c(OC(=O)NCC[C@@H](NC)C(=O)O)c2cc(C(C)=O)oc12)C(=O)O [Example 3, (S)-4-((((2-Acetyl-4-((((R)-3-carboxy-3-(methylamino)propyl)carbamoyl)oxy)naphtho[2,3-b]furan-9-yl)oxy)carbonyl)amino)-2-(methylamino)butanoic acid dihydrochloride]
% Measurement value (conversion rate to 2-acetylnaphtho[2,3-b]furan-4,9-dione) [1, 2]: 40%

Compound: CC(=O)c1cc2c(OC(=O)NCCNCC(=O)O)c3ccccc3c(OC(=O)NCCNCC(=O)O)c2o1 [Example 98, 2,2′-((((((2-acetylnaphtho[2,3-b]furan-4,9-diyl)bis(oxy))bis(carbonyl))bis(azanediyl))bis(ethane-2,1-diyl))bis(azanediyl))diacetic acid 1/3 trifluoroacetate salt monohydrate]
% Measurement value (conversion rate to 2-acetylnaphtho[2,3-b]furan-4,9-dione) [1, 6]: 66%
solubility at 24 hours (Solubility test): > 5000 µg/mL

Compound: COC(=O)[C@@H](N)CCNC(=O)Oc1c2ccccc2c(OC(=O)NCC[C@H](N)C(=O)OC)c2oc(C(C)=O)cc12 [Example 108, Dimethyl 4,4′-((((2-acetylnaphtho[2,3-b]furan-4,9-diyl)bis(oxy))bis(carbonyl))bis(azanediyl))(2S,2′S)-bis(2-aminobutanoate)ditrifluoroacetate salt]
% Measurement value (conversion rate to 2-acetylnaphtho[2,3-b]furan-4,9-dione) [1, 2]: 44%
Solubility in pH 2.0 buffer solution (Solubility test): >5.0 mg/mL

Compound: CC(=O)c1cc2c(OC(=O)NCCNCC(=O)O)c3ccccc3c(OC(=O)NCCNCC(=O)O)c2o1 [Example 94, 2,2′-((((((2-acetylnaphtho[2,3-b]furan-4,9-diyl)bis(oxy))bis(carbonyl))bis-(azanediyl))bis(ethane-2,1-diyl))bis(azanediyl))diacetic acid dimethanesulfonate salt monohydrate]
% Measurement value (conversion rate to 2-acetylnaphtho[2,3-b]furan-4,9-dione) [1, 5]: 53%

Compound: CC(=O)c1cc2c(OC(=O)NCCNCC(=O)O)c3ccccc3c(OC(=O)NCCNCC(=O)O)c2o1 [Example 93, 2,2′-((((((2-acetylnaphtho[2,3-b]furan-4,9-diyl)bis(oxy))bis(carbonyl))bis(azanediyl))bis(ethane-2,1-diyl))bis(azanediyl))diacetic acid monohydrochloride dihydrate]
% Measurement value (conversion rate to 2-acetylnaphtho[2,3-b]furan-4,9-dione) ([1]; Phosphate buffer solution (pH 7.4), 1 umol/L, 37° C., incubation time 120 min, monohydrochloride dihydrate): 72%

Compound: CC(=O)c1cc2c(OC(=O)NCCNCC(=O)O)c3ccccc3c(OC(=O)NCCNCC(=O)O)c2o1 [Example 97, 2,2′-((((((2-acetylnaphtho[2,3-b]furan-4,9-diyl)bis(oxy))bis(carbonyl))bis-(azanediyl))bis(ethane-2,1-diyl))bis(azanediyl))diacetic acid monosulfate salt monohydrate]
% Measurement value (conversion rate to 2-acetylnaphtho[2,3-b]furan-4,9-dione) [1, 4]: 61%

Compound: CC(=O)c1cc2c(OC(=O)NCCCN)c3ccccc3c(O)c2o1.Cl [Example 15, 2-Acetyl-9-hydroxynaphtho[2,3-b]furan-4-yl (3-aminopropyl)carbamate hydrochloride]
% Measurement value (conversion rate to 2-acetylnaphtho[2,3-b]furan-4,9-dione) [1, 2]: 100%

solubility at 24 hours (Solubility test; glycine buffer solution): < 0.1 µg/mL
solubility (in words) (Solubility test): very low solubility
Compound: CC(=O)c1cc2c(OC(=O)C(C)(C)C)c3ccccc3c(OC(=O)C(C)(C)C)c2o1 [2-acetylnaphtho[2,3-b]furan-4,9-diyl bis(2,2-dimethylpropanoate), reference compound]

Compound: CC(=O)c1cc2c(OC(=O)NCCNCCC(=O)O)c3ccccc3c(O)c2o1 [Example 17, 3-((2-((((2-Acetyl-9-hydroxynaphtho[2,3-b]furan-4-yl)oxy)carbonyl)amino)ethyl)amino)prop ionic acid hydrochloride]
% Measurement value (conversion rate to 2-acetylnaphtho[2,3-b]furan-4,9-dione) [1, 2]: 80%

Compound: CC(=O)c1cc2c(OC(=O)NCCN)c3ccccc3c(OC(=O)NCCN)c2o1 [Example 2, 2-Acetylnaphtho[2,3-b]furan-4,9-diyl bis((2-aminoethyl)carbamate)dihydrochloride]
% Measurement value (conversion rate to 2-acetylnaphtho[2,3-b]furan-4,9-dione) [1, 2]: 59%
